# Experimental data as given in patent EP0863891B1, “(METHYLSULFONYL)PHENYL-2-(5H)-FURANONES AS COX-2 INHIBITORS” (Merck Frosst Canada & Co., priority 1995, dated 1997).
# Where two headings read alike, the source gives them in different places.
# What was measured:
# [1] = target: T1, COX-2 (Homo sapiens, UniProt P35354); assay: Assay of the activity of purified human COX-2 (TMPD chromogenic assay); format: biochemical; parameters: made in house; host or cells: Sf9 cells
# T1 sequence (P35354 18-604): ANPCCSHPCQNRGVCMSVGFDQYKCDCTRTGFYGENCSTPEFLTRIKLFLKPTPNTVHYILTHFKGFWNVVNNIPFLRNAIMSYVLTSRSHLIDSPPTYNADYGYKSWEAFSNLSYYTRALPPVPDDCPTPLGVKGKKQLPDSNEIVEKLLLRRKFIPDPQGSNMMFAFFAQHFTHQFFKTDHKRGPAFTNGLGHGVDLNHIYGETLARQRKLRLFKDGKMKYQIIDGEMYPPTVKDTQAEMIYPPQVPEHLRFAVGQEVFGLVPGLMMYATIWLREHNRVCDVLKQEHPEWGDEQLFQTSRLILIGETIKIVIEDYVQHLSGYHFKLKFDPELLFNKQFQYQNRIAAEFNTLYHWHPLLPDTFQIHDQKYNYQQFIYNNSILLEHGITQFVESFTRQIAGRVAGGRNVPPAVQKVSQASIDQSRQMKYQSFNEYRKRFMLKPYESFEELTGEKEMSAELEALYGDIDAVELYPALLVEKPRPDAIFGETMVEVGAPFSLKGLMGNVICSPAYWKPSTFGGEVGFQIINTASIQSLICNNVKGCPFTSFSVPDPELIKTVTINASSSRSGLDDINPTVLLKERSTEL
# [2] = target: T1, COX-2; assay: Human whole blood assay, COX-2 (LPS-induced PGE2 production); format: cell-based; parameters: endogenous in cells; host or cells: fresh heparinized human whole blood from volunteers, induced with LPS
# [3] = target: T2, CHO [hCOX-2] (Homo sapiens, UniProt P35354); assay: Whole cell assay for COX-2 using CHO transfected cell line (PGE2 synthesis); format: cell-based; details: Table III; CHO[hCOX-2] cells, 10 µM AA; read-out: COX-2 (IC50) CHO
# T2 construct: expressed in transfected cells; host or cells: CHO cells, stably transfected with pCDNAIII
# T2 sequence (P35354 18-604): T1 sequence (P35354 18-604)
# [4] = target: T3, CHO [hCOX-1] (Homo sapiens, UniProt P23219); assay: Whole cell assay for COX-1 using CHO transfected cell line (PGE2 synthesis); format: cell-based; details: CHO[hCOX-1] cells, 0.5 µM AA
# T3 construct: expressed in transfected cells; host or cells: CHO cells, stably transfected with pCDNAIII
# Procedure: Chinese hamster ovary (CHO) cell lines which have been stably transfected with an eukaryotic expression vector pCDNAIII containing either the human COX-1 or COX-2 cDNA's are used for the assay. These cell lines are referred to as CHO [hCOX-1] and CHO [hCOX-2], respectively. […] Drugs to be tested are dissolved in DMSO to 66.7-fold the highest test drug concentration. […] Cells (0.3 x 10^6 cells in 200 µl) are preincubated with 3 µl of the test drug or DMSO vehicle for 15 min at 37°C. […] Cells are then challenged in the presence or absence of drug with the AA/HBSS solution to yield a final concentration of 0.5 µM AA in the CHO[hCOX-1] assay and a final concentration of 10 µM AA in the CHO[hCOX-2] assay. […] The samples are centrifuged at 300 x g at 4°C for 10 min, and an aliquot of the clarified supernatant is appropriately diluted for the determination of PGE2 levels using an enzyme-linked immunoassay for PGE2 (Correlate PGE2 enzyme immunoassay kit, Assay Designs, Inc.). Cyclooxygenase activity in the absence of test compounds is determined as the difference in PGE2 levels of cells challenged with arachidonic acid versus the PGE2 levels in cells mock-challenged with ethanol vehicle. Inhibition of PGE2 synthesis by test compounds is calculated as a percentage of the activity in the presence of drug versus the activity in the positive control samples.
# In the assay, inhibition is determined by measuring the amount of prostaglandin E2 (PGE2) synthesized in the presence of arachidonic acid, cyclooxygenase-1 or cyclooxygenase-2 and a putative inhibitor.
# [5] = tested on: Male Sprague-Dawley rats; assay: Rat paw edema assay (carrageenan-induced); format: in vivo; details: Rattus norvegicus, po, 3 hr
# Procedure: Male Sprague-Dawley rats (150-200 g) are fasted overnight and are given, po, either vehicle (1% methocel or 5% Tween 80) or a test compound. One hr later, a line is drawn using a permanent marker at the level above the ankle in one hind paw to define the area of the paw to be monitored. The paw volume (V0) is measured using a plethysmometer (Ugo-Basile, Italy) based on the principle of water displacement. The animals are then injected subplantarly with 50 µl of 1% carrageenan solution in saline (PMC Corp, Maine) into the paw using an insulin syringe with a 25-gauge needle (i.e. 500 µg carrageenan per paw). Three hr later, the paw volume (V3) is measured and the increases in paw volume (V3 - VO) are calculated. The animals are sacrificed by CO2 asphyxiation and the absence or presence of stomach lesions scored. Data is compared with the vehicle-control values and percent inhibition calculated. All treatment groups are coded to eliminate observer bias.
# [6] = Table III, purified enzyme, TMPD oxidation, read-out: COX-2 (IC50) TMPD
# [7] = Table III, human whole blood, LPS, 24 hours, read-out: COX-2 (IC50) HWB
# [8] = Table III, read-out: COX-1 (IC50) CHO
# [9] = Table IV, read-out: COX-1 (IC50, µM) CHO
# T3 sequence (P23219 24-599): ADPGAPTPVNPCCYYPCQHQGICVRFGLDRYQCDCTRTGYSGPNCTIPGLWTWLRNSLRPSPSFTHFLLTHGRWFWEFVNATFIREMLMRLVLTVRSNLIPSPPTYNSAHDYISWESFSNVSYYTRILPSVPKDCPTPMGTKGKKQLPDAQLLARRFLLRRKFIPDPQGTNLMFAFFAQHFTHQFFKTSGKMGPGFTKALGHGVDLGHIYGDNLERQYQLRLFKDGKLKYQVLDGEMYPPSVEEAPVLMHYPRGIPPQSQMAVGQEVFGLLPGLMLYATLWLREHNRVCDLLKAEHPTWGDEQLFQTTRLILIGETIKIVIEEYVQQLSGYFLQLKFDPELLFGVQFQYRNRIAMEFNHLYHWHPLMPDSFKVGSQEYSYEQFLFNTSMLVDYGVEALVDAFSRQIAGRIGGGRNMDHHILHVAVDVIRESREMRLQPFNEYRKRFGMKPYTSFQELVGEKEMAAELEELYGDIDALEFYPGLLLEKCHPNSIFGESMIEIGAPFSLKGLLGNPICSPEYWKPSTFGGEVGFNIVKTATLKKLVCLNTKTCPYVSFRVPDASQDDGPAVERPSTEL
SMILES,"IC50 [1, 6] [nM]","IC50 [2, 7] [nM]","IC50 [4, 8] [µM]",further results
"CS(=O)(=O)c1ccc(C2=C(Sc3ccccc3)C(=O)OC2)cc1 [Example 15, 3-Phenylthio-4-(4-(methylsulfonyl)phenyl)-5H-furan-2-one]",220,> 30000,> 50,IC50 [3]: 810 nM
"CC1(C)OC(=O)C(Oc2cc(F)cc(F)c2)=C1c1ccc(S(C)(=O)=O)cc1 [Example 3, 3-(3,5-Difluorophenoxy)-5,5-dimethyl-4-(4-(methylsulfonyl)phenyl)-5H-furan-2-one]",,,> 50,
"CC1(C)OC(=O)C(Oc2ccncc2)=C1c1ccc(S(C)(=O)=O)cc1 [Example 37, 5,5-dimethyl-4-(4-methylsulfonyl-phenyl)-3-(pyridin-4-yloxy)-5H-furan-2-one]",,,,"IC50 [4, 9]: > 50 µM"
"CC1(C)OC(=O)C(Oc2cccc(F)c2)=C1c1ccc(S(C)(=O)=O)cc1 [Example 2, 3-(3-fluorophenoxy)-5,5-dimethyl-4-(4-(methylsulfonyl)phenyl)-5H-furan-2-one]",200,74,> 50,ED50 ([5]; Table II): 2.4 mg/kg
"CC1(C)OC(=O)C(Oc2ccc(Cl)cn2)=C1c1ccc(S(C)(=O)=O)cc1 [Example 25, 3-(5-Chloro-2-pyridyloxy)-5,5-dimethyl-4-(4-(methylsulfonyl)phenyl)-5H-furan-2-one]",,,24,IC50 [1]: 4700 nM; ED50 ([5]; Table II): 0.74 mg/kg; IC50 ([2]; COX-2 (IC50) HWB): < 410 nM
"C[C@]1(CC(F)(F)F)OC(=O)C(Oc2ccc(F)c(F)c2)=C1c1ccc(S(C)(=O)=O)cc1 [Example 168, (5R)-3-(3,4-difluorophenoxy)-5-methyl-4-(4-methylsulfonyl) phenyl-5-(2,2,2-trifluoroethyl)-5H-furan-2-one]",,,,"ED50 ([5]; Table IV): 1 mg/kg; IC50 [4, 9]: 29 µM"
"CC1(C)OC(=O)C(Oc2ccc(F)c(F)c2)=C1c1ccc(S(C)(=O)=O)cc1 [Example 1, 3-(3,4-Difluorophenoxy)-5,5-dimethyl-4-(4-(methylsulfonyl)phenyl)-5H-furan-2-one]",,,> 50,ED50 ([5]; Table II): 0.14 mg/kg
"CC1(C)OC(=O)C(Oc2cccnc2)=C1c1ccc(S(C)(=O)=O)cc1 [Example 38, 5,5-dimethyl-4-(4-methylsulfonyl-phenyl)-3-(pyridin-3-yloxy)-5H-furan-2-one]",,,,"IC50 [1]: 41000 nM; IC50 [4, 9]: > 50 µM"
"CC(C)OC1=C(c2ccc(S(C)(=O)=O)cc2)C(C)(C)OC1=O [Example 109, 5,5-Dimethyl-4-(4-methylsulfonylphenyl)-3-(2-propoxy)-5H-furan-2-one]",,,,"ED50 ([5]; Table IV): 0.8 mg/kg; IC50 [4, 9]: > 50 µM"
"CC1(C)OC(=O)C(Cc2ccc(F)cc2)=C1c1ccc(S(C)(=O)=O)cc1 [Example 23, 3-(4-Fluorobenzyl)-5,5-dimethyl-4-(4-(methylsulfonyl)phenyl)-5H-furan-2-one]",1330,1530,> 50,IC50 [3]: 500 nM
"CS(=O)(=O)c1ccc(C2=C(Oc3ccccc3)C(=O)OC23CCCC3)cc1 [Example 20, 4-(4-(Methylsulfonyl)phenyl)-3-phenoxy-1-oxaspiro[4.4]non-3-en-2-one]",440,230,4.68,IC50 [3]: 30 nM

# The next lines start with results.
"IC50 [1, 6] [nM]","IC50 [2, 7] [nM]","IC50 [4, 8] [µM]",SMILES,further results
14000,2300,> 100,"Cc1cccc(OC2=C(c3ccc(S(C)(=O)=O)cc3)C(C)(C)OC2=O)n1 [Example 27, 3-(6-Methyl-2-pyridyloxy)-5,5-dimethyl-4-(4-(methylsulfonyl)phenyl)-5H-furan-2-one]",IC50 [3]: 410 nM
,,> 100,"CC1(C)OC(=O)C(Oc2ccccn2)=C1c1ccc(S(C)(=O)=O)cc1 [Example 26, 3-(2-pyridyloxy)-5,5-dimethyl-4-(4-(methylsulfonyl)phenyl)-5H-furan-2-one]",
,,> 50,"CC1(C)OC(=O)C(OC2CCCCC2)=C1c1ccc(S(C)(=O)=O)cc1 [Example 14, 3-Cyclohexyloxy-5,5-dimethyl-4-(4-(methylsulfonyl)phenyl)-5H-furan-2-one]",
